Measured values published in patent US11739098B2 (BRISTOL-MYERS SQUIBB COMPANY, priority 2017, dated 2023).

Experiments:
Format in all cases: cell-based
[1] = biological target: T1, human TLR7 (Homo sapiens, UniProt Q9NYK1); test: TLR7 inhibition reporter assay (HEK-Blue cells, SEAP reporter, gardiquimod stimulation); settings: HEK-Blue cells overexpressing human TLR7, SEAP reporter, gardiquimod 7.5 μM
T1 construct: host or cells: HEK-Blue cells (HEK293-derived reporter line)
T1 sequence (Q9NYK1 27-1049): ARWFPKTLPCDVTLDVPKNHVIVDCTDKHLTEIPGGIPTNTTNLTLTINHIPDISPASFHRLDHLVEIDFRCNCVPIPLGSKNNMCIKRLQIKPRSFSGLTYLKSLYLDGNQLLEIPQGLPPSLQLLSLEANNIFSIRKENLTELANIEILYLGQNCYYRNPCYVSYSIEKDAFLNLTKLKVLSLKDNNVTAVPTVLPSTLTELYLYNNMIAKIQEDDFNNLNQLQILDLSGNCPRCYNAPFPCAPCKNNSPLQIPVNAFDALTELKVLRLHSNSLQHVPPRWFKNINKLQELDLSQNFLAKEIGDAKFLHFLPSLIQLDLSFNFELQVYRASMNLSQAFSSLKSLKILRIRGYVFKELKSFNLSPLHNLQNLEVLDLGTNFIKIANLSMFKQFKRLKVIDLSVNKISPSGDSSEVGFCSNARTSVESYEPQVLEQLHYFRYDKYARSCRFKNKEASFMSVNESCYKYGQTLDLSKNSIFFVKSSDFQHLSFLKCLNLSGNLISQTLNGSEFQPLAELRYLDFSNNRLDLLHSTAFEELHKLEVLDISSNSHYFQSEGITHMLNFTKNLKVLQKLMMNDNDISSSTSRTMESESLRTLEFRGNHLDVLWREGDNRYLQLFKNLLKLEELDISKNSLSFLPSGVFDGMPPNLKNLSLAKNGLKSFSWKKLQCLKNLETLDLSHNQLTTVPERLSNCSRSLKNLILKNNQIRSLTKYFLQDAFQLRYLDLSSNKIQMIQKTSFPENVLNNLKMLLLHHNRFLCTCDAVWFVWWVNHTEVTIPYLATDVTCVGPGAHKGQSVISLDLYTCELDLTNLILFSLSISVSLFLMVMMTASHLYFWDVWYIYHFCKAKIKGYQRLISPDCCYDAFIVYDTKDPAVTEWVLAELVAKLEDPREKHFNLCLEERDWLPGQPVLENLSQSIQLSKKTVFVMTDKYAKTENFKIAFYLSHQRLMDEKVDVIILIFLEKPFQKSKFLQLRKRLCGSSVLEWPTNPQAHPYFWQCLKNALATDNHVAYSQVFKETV
Outline: (§1)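 Read-out is SEAP activity in HEK-Blue detection medium after 22 h at 37 °C, converted to percent inhibition against agonist-plus-DMSO and reference-inhibitor controls. Cells saw compound (0.05 nM–50 μM, 30 min, room temperature) before gardiquimod 7.5 μM, R848 15.9 μM or ODN2006 5 nM for TLR7, TLR8 and TLR9, respectively.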

[2] = biological target: T2, human TLR9 (Homo sapiens, UniProt Q9NR96); test: TLR9 inhibition reporter assay (HEK-Blue cells, SEAP reporter, ODN2006 stimulation); settings: HEK-Blue cells overexpressing human TLR9, SEAP reporter, ODN2006 5 nM
T2 construct: host or cells: HEK-Blue cells (HEK293-derived reporter line)
T2 sequence (Q9NR96 26-1032): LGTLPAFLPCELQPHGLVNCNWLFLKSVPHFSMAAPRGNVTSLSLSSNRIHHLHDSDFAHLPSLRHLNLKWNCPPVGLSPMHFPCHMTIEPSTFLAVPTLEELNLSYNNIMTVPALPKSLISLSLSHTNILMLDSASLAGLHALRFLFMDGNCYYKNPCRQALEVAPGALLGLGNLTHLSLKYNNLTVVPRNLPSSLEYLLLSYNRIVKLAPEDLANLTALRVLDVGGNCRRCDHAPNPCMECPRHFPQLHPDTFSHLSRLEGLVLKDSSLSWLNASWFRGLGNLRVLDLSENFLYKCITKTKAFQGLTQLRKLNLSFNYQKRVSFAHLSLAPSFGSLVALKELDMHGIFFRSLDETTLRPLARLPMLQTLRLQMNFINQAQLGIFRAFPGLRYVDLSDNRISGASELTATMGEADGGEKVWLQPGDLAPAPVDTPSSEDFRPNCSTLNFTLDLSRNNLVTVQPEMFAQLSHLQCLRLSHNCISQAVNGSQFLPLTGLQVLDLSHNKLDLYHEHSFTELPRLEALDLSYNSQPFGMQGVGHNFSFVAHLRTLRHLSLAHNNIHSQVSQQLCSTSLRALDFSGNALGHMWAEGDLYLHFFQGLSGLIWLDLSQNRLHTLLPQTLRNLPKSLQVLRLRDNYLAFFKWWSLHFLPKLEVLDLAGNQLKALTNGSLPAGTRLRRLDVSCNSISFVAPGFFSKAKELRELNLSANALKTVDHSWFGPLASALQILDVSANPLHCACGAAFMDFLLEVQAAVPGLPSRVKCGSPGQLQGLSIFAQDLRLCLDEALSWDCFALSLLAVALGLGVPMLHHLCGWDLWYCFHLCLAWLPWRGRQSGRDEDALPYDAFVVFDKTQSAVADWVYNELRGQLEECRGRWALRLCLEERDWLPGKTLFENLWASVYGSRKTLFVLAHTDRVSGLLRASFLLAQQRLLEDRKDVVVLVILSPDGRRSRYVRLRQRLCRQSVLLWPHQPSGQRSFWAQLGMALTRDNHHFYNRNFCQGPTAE
Outline: as §1

[3] = biological target: T3, human TLR8 (Homo sapiens, UniProt Q9NR97); test: TLR8 inhibition reporter assay (HEK-Blue cells, SEAP reporter, R848 stimulation); settings: HEK-Blue cells overexpressing human TLR8, SEAP reporter, R848 15.9 μM
T3 construct: host or cells: HEK-Blue cells (HEK293-derived reporter line)
T3 sequence (Q9NR97 27-1041): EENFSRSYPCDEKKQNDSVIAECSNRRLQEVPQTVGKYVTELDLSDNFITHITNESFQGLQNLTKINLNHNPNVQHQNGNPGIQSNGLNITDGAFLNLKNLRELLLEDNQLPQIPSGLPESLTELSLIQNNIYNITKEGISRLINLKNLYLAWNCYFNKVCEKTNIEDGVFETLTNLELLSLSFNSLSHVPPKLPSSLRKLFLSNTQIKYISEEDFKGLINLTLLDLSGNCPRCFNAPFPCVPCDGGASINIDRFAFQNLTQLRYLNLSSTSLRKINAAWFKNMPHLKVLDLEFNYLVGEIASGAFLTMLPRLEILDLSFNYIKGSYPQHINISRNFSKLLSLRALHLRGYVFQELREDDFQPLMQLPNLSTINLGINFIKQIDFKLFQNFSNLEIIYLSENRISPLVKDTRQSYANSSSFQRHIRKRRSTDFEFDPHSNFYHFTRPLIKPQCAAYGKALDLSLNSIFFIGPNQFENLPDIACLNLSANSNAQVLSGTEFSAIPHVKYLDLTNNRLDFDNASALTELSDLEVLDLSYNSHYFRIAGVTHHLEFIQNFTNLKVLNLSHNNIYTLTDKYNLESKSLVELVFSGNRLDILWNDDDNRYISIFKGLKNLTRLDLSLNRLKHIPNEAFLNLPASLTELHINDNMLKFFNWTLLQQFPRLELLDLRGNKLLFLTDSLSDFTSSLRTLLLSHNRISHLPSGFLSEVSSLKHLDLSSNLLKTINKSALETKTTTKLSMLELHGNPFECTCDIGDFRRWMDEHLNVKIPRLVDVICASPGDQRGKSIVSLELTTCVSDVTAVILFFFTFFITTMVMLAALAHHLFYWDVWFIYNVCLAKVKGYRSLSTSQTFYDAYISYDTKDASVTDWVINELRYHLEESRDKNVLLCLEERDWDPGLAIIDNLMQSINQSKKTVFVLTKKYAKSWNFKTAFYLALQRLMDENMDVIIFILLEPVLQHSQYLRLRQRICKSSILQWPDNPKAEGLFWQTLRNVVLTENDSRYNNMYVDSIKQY
Outline: as §1

Row | Structure (SMILES) | IC50 [1] [µM] | IC50 [2] [µM] | IC50 [3] [µM]
1 | Cc1cc2cc(-c3[nH]c4ccc(C5CCN(CC(=O)N(C)C)CC5)cc4c3C(C)C)cc(CC(C)C)n2n1 [Example 393, 2-(4-(2-(7-isobutyl-2-methylpyrazolo[1,5-a]pyridin-5-yl)-3-isopropyl-1H-indol-5-yl)piperidin-1-yl)-N,N-dimethylacetamide] | > 3.13 | 1 to 50 | > 3.13
2 | CCc1c(-c2cnc3cncc(OC)n23)[nH]c2ccc(C3CCNCC3)cc12 [Example 25, 3-(3-ethyl-5-(piperidin-4-yl)-1H-indol-2-yl)-5-methoxyimidazo[1,2-a]pyrazine] | 1 to 50 | 0.1 to 1 | 1 to 50
3 | CNC(=O)CN1CCC(c2ccc3[nH]c(-c4cn(C)c5ncccc45)c(C(C)C)c3c2)CC1 [Example 293, 2-(4-(3-isopropyl-2-(1-methyl-1H-pyrrolo[2,3-b]pyridin-3-yl)-1H-indol-5-yl)piperidin-1-yl)-N-methylacetamide] | < 0.1 | 1 to 50 | < 0.1
4 | CC(C)c1c(-c2cnc3ncnn3c2)[nH]c2ccc(C3CCN(CC(=O)N(C)C)CC3)cc12 [Example 422, 2-(4-(2-([1,2,4]triazolo[1,5-a]pyrimidin-6-yl)-3-isopropyl-1H-indol-5-yl)piperidin-1-yl)-N,N-dimethylacetamide] | < 0.1 | 1 to 50 | 0.1 to 1
5 | Cc1nc(CN2CCC(c3ccc4[nH]c(-c5ccc6nccn6c5)c(CC(F)F)c4c3)CC2)c[nH]1 [Example 939, 6-(3-(2,2-difluoroethyl)-5-(1-((2-methyl-1H-imidazol-4-yl)methyl)piperidin-4-yl)-1H-indol-2-yl)imidazo[1,2-a]pyridine] | 0.1 to 1 | 0.1 to 1 | 0.1 to 1
6 | CC(C)c1c(-c2ccc3[nH]nc(N)c3c2)[nH]c2ccc(C3CCNCC3)cc12 [Example 93, 5-(3-isopropyl-5-(piperidin-4-yl)-1H-indol-2-yl)-1H-indazol-3-amine] | < 0.1 | 0.1 to 1 | < 0.1
7 | CNC(=O)CN1CCC(c2ccc3[nH]c(-c4cc(OC)c5nccn5c4)c(C(C)C)c3c2)CC1 [Example 434, 2-(4-(3-isopropyl-2-(8-methoxyimidazo[1,2-a]pyridin-6-yl)-1H-indol-5-yl)piperidin-1-yl)-N-methylacetamide] | < 0.1 | 0.1 to 1 | < 0.1
8 | CNC(=O)CN1CCC(c2ccc3[nH]c(-c4ccc(C)n5nc(C)nc45)c(C(C)C)c3c2)CC1 [Example 383, 2-(4-(2-(2,5-dimethyl-[1,2,4]triazolo[1,5-a]pyridin-8-yl)-3-isopropyl-1H-indol-5-yl)piperidin-1-yl)-N-methylacetamide] | 1 to 50 | 1 to 50 | 0.1 to 1
9 | COc1cc(-c2[nH]c3ccc(C4CCN(C(=O)CN(C)C)CC4)cc3c2C(C)C)cc2nccn12 [Example 501, 2-(dimethylamino)-1-(4-(3-isopropyl-2-(5-methoxyimidazo[1,2-a]pyridin-7-yl)-1H-indol-5-yl)piperidin-1-yl)ethan-1-one] | 0.1 to 1 | 0.1 to 1 | 0.1 to 1
10 | Cc1c(-c2ccnc3c2ccn3C)[nH]c2ccc(C3CCN(C4CCN(CC(C)C)CC4)CC3)cc12 [Example 843, 4-(5-(1′-isobutyl-[1,4′-bipiperidin]-4-yl)-3-methyl-1H-indol-2-yl)-1-methyl-1H-pyrrolo[2,3-b]pyridine] | 1 to 50 | < 0.1 | < 0.1
11 | Cc1cc2cc(-c3[nH]c4ccc(C5CCN(C6COC6)CC5)cc4c3C(C)C)cc(CC(C)C)n2n1 [Example 716, 7-isobutyl-5-(3-isopropyl-5-(1-(oxetan-3-yl)piperidin-4-yl)-1H-indol-2-yl)-2-methylpyrazolo[1,5-a]pyridine] | > 3.13 | 1 to 50 | > 3.13
12 | Cc1cc(-c2[nH]c3ccc(C4CCN(CC(=O)N(C)C)CC4)cc3c2C(C)C)c(C)n2nnnc12 [Example 310, 2-(4-(2-(5,8-dimethyltetrazolo[1,5-a]pyridin-6-yl)-3-isopropyl-1H-indol-5-yl)piperidin-1-yl)-N,N-dimethylacetamide] | < 0.1 | 1 to 50 | < 0.1
13 | CCc1c(-c2cnc3[nH]ncc3c2)[nH]c2ccc(C3CCNCC3)cc12 [Example 53, 5-(3-ethyl-5-(piperidin-4-yl)-1H-indol-2-yl)-1H-pyrazolo[3,4-b]pyridine] | 0.1 to 1 | 1 to 50 | < 0.1
14 | CCc1c(-c2ccnc3[nH]ncc23)[nH]c2ccc(C3CCN(C(=O)CN)CC3)cc12 [Example 461, 2-amino-1-(4-(3-ethyl-2-(1H-pyrazolo[3,4-b]pyridin-4-yl)-1H-indol-5-yl)piperidin-1-yl)ethan-1-one] | 0.1 to 1 | 1 to 50 | < 0.1
